Structures can show the parent of a compound that is named as a salt.
What was measured:
[1] = Dynamic moisture sorption (DMS) assessment; format: physicochemical
Method: A dynamic moisture sorption (DMS) assessment (also known as a moisture sorption-desorption profile) was performed for samples of the crystalline diacetate salt using a VTI atmospheric microbalance, SGA-100 system (VTI Corp., Hialeah, Fla. 33016). A sample size of approximately 10 mg was used and the humidity was set at the ambient value at the start of the analysis. A typical DMS analysis consisted of three scans: ambient to 2% relative humidity (RH), 2% RH to 90% RH, 90% RH to 5% RH at a scan rate of 5% RH/step. The mass was measured every two minutes and the RH was changed to the next value (+/−5% RH) when the mass of the sample was stable to within 0.01% for 5 consecutive points.

[2] = DSC thermal analysis (thermal decomposition); format: physicochemical; details: DSC trace, heating ramp 10° C./min
Method: DSC was performed using a TA Instruments Model Q-10 module with a Thermal Analyst controller, and data were collected and analyzed using TA Instruments Thermal Solutions software. A sample of about 1 mg of the crystalline diacetate salt was accurately weighed into an aluminum pan with lid, and evaluated using a linear heating ramp of 10° C./min from ambient temperature to approximately 300° C. The DSC cell was purged with dry nitrogen during use. A representative DSC trace for this salt is shown in FIG. 2 and depicts one transition at about 114° C., no thermal decomposition below about 160° C., and maximum endothermic heat flow at about 112° C.

Row | weight gain when exposed to up to 90% RH (DMS, reversible sorption/desorption profile) [1] | no thermal decomposition below (DSC) [2] [°C] | SMILES
1 | less than 18% | ≥ 160 | CN(CCN1CCC(OC(=O)Nc2ccccc2-c2ccccc2)CC1)C(=O)c1cccc(C(=O)NCCNCc2ccc(O)cc2)c1 [crystalline diacetate salt, biphenyl-2-ylcarbamic acid 1-[2-({3-[2-(4-hydroxybenzylamino)ethylcarbamoyl]benzoyl}methylamino)ethyl]piperidin-4-yl ester]
2 | less than 11% | ≥ 150 | CN(CCN1CCC(OC(=O)Nc2ccccc2-c2ccccc2)CC1)C(=O)c1cccc(C(=O)NCCNCc2ccc(O)cc2)c1 [crystalline dipropionate salt, Biphenyl-2-ylcarbamic Acid 1-[2-({3-[2-(4-Hydroxybenzylamino)ethylcarbamoyl]benzoyl}methylamino)ethyl]piperidin-4-yl Ester]
3 | less than 14% | ≥ 150 | CN(CCN1CCC(OC(=O)Nc2ccccc2-c2ccccc2)CC1)C(=O)c1cccc(C(=O)NCCNCc2ccc(O)cc2)c1 [crystalline monooxalate salt, Biphenyl-2-ylcarbamic Acid 1-[2-({3-[2-(4-Hydroxybenzylamino)ethylcarbamoyl]benzoyl}methylamino)ethyl]piperidin-4-yl Ester]
